Assay results: patent publication US9890156B2, “Bicyclic heterocycles as FGFR4 inhibitors” (Incyte Corporation, priority 2015, dated 2018)
Read-outs that look alike come from different tables or passages of the source.

Key:
[1] = target: FGFR4 (Homo sapiens (Human), UniProt P22455); test: FGFR Enzymatic Assay (FRET, peptide phosphorylation), FGFR4
[2] = target: FGFR1 (Homo sapiens (Human), UniProt P11362); test: FGFR Enzymatic Assay (FRET, peptide phosphorylation), FGFR1; details: read-out: FGFR1 IC50; pre-incubated for 4 hours; ATP 210 uM
[3] = target: FGFR2 (Homo sapiens (Human), UniProt P21802); test: FGFR Enzymatic Assay (FRET, peptide phosphorylation), FGFR2; details: read-out: FGFR2 IC50; pre-incubated for 4 hours; ATP 100 uM
[4] = target: FGFR3 (Homo sapiens (Human), UniProt P22607); test: FGFR Enzymatic Assay (FRET, peptide phosphorylation), FGFR3; format: biochemical; details: pre-incubated for 4 hours; ATP 140 μM
[5] = read-out: FGFR4 IC50, pre-incubated for 4 hours, ATP 600 uM

Chain of FGFR3 (P22607 23-806): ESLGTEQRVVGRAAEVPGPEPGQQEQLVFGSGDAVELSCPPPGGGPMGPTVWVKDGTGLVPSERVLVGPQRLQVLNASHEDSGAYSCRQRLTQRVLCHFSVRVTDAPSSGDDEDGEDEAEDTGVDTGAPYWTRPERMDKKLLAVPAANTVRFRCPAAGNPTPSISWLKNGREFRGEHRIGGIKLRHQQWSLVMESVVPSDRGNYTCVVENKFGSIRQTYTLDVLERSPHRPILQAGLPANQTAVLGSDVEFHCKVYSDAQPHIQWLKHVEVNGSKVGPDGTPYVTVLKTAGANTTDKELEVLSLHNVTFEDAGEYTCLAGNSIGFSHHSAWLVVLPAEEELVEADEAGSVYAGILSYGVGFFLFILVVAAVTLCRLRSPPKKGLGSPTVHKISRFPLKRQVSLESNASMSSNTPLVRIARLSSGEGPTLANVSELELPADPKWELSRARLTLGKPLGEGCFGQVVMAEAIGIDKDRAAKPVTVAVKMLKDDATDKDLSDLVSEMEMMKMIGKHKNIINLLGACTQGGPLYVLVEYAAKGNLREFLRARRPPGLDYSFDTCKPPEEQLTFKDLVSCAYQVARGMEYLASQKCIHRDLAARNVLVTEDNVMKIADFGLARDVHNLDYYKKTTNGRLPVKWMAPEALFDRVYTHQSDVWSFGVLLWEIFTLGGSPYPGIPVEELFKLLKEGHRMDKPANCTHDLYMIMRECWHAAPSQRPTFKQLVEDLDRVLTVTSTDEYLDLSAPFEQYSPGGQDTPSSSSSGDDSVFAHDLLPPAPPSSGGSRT
Chain of FGFR1 (P11362 22-822): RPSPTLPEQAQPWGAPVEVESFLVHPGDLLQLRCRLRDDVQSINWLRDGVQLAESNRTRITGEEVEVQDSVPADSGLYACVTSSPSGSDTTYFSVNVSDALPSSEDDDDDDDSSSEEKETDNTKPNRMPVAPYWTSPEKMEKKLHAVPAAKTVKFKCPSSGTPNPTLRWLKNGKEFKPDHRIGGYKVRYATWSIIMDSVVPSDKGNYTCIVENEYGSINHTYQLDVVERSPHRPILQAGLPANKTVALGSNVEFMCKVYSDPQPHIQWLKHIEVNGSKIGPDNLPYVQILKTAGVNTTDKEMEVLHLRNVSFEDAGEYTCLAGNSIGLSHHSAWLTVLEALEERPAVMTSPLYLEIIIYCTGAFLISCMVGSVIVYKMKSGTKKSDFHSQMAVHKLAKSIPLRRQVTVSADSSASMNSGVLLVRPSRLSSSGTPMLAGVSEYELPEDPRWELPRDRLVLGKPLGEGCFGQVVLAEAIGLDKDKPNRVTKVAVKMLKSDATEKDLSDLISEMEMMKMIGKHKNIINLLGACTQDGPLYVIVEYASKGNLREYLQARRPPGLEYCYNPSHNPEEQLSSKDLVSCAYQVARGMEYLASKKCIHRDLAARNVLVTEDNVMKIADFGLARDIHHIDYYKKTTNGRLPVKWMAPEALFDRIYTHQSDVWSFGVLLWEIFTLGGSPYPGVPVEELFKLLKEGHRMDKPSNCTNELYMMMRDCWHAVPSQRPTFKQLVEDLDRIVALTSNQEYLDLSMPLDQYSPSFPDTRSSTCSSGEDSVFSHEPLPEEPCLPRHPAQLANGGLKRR
Chain of FGFR2 (P21802 22-821): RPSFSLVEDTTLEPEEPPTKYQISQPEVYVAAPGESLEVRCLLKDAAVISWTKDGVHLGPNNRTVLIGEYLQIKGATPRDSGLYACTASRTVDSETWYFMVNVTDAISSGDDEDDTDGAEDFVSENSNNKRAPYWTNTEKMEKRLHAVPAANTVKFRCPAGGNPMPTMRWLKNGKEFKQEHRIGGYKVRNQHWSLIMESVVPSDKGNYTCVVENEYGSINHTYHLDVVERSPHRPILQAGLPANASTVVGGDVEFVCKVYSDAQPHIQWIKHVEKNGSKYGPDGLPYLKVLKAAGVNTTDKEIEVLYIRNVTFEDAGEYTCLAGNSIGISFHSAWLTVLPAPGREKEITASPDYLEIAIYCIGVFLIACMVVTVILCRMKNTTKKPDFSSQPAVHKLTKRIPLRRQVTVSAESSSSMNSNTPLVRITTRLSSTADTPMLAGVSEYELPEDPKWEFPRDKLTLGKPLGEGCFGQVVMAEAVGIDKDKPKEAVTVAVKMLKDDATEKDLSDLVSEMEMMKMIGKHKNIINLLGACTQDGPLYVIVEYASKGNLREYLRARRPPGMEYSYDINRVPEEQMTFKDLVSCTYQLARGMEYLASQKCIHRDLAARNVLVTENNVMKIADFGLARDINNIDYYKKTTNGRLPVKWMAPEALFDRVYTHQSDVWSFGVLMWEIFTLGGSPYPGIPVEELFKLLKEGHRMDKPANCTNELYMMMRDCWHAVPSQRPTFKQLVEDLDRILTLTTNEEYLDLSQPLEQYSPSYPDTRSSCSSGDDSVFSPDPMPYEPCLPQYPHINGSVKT
Chain of FGFR4 (P22455 22-802): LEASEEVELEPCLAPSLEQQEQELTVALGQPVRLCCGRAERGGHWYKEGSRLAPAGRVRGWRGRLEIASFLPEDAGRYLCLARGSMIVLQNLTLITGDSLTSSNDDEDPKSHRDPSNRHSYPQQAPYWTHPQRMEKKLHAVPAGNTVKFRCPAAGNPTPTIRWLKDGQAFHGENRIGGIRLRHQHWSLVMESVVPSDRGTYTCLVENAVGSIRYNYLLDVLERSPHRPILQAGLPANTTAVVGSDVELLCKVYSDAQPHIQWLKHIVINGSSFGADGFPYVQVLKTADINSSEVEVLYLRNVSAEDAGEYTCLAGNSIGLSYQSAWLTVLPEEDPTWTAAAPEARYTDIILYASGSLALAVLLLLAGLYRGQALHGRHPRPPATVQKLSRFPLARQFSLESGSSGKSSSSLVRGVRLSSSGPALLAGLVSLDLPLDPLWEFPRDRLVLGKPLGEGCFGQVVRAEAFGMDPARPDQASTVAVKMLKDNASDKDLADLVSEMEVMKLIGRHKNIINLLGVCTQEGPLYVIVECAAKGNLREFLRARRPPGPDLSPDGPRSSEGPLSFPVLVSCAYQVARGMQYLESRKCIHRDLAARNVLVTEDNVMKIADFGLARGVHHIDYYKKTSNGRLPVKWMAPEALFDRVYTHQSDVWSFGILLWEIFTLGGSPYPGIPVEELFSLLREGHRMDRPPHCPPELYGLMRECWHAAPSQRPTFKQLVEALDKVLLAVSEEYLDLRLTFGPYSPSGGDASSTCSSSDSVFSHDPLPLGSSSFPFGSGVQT

SMILES | IC50 [1] [nM] | IC50 [2] [nM] | IC50 [3] [nM] | IC50 [4] [nM] | IC50 [1, 5] [nM] | IC50 ([1]; read-out: FGFR4 IC50, pre-incubated for 5 to 10 minutes, ATP 600 uM) [nM]
C=CC(=O)NCc1cc2c(cn1)CN(c1c(F)c(OC)cc(OC)c1F)C(=O)N2C [Example 22, N-((3-(2,6-difluoro-3,5-dimethoxyphenyl)-1-methyl-2-oxo-1,2,3,4-tetrahydropyrido[4,3-d]pyrimidin-7-yl)methyl)acrylamide] | 10 to 30 | > 200 | > 200 | > 200 |  | 
C=CC(=O)NCc1cc2c(cn1)CN(c1c(F)c(OC)cc(OC)c1F)C(=O)N2CC1CCC1 [Example 30, N-((1-(cyclobutylmethyl)-3-(2,6-difluoro-3,5-dimethoxyphenyl)-2-oxo-1,2,3,4-tetrahydropyrido[4,3-d]pyrimidin-7-yl)methyl)acrylamide] |  | 30 to 200 |  | > 200 | < 10 | 
C=CC(=O)NCc1cc2c(cn1)CN(c1c(F)c(OC)cc(OC)c1F)C(=O)N2CC(F)(F)F [Example 21, N-((3-(2,6-difluoro-3,5-dimethoxyphenyl)-2-oxo-1-(2,2,2-trifluoroethyl)-1,2,3,4-tetrahydropyrido[4,3-d]pyrimidin-7-yl)methyl)acrylamide] |  | > 200 | > 200 | > 200 | < 10 | 
C=CC(=O)NCc1cc2c(cn1)CN(c1c(F)c(OC)cc(OC)c1F)C(=O)N2Cc1cccnc1 [Example 17, N-((3-(2,6-difluoro-3,5-dimethoxyphenyl)-2-oxo-1-(pyridin-3-ylmethyl)-1,2,3,4-tetrahydropyrido[4,3-d]pyrimidin-7-yl)methyl)acrylamide] | 10 to 30 | > 200 | > 200 | > 200 |  | 
C=CC(=O)NCc1ncc2c(n1)C1(CC1)C(=O)N(c1c(F)c(OC)cc(OC)c1F)C2 [Example 4, N-((6′-(2,6-difluoro-3,5-dimethoxyphenyl)-7′-oxo-6′,7′-dihydro-5′H-spiro[cyclopropane-1,8′-pyrido[4,3-d]pyrimidine]-2′-yl)methyl)acrylamide] | 10 to 30 | > 200 | > 200 | > 200 |  | 
C=CC(=O)NCc1cc2c(cn1)CN(c1c(F)c(OC)cc(OC)c1F)C(=O)C21CC1 [Example 1, N-{[2′-(2,6-difluoro-3,5-dimethoxyphenyl)-3′-oxo-2′,3′-dihydro-1′H-spiro[cyclopropane-1,4′-[2,7]naphthyridin]-6′-yl]methyl}acrylamide] |  |  |  |  | < 10 | < 10
C=CC(=O)NCc1cc2c(cn1)CN(c1c(F)c(OC)cc(OC)c1F)C(=O)N2CC1CCN(S(C)(=O)=O)CC1 [Example 35, N-((3-(2,6-difluoro-3,5-dimethoxyphenyl)-1-((1-(methylsulfonyl)piperidin-4-yl)methyl)-2-oxo-1,2,3,4-tetrahydropyrido[4,3-d]pyrimidin-7-yl)methyl)acrylamide] |  | > 200 | > 200 | > 200 | < 10 | 
C=CC(=O)NCc1cc2c(cn1)CN(c1c(F)c(OC)cc(OC)c1F)C(=O)N2C1CCCC1 [Example 28, N-((1-cyclopentyl-3-(2,6-difluoro-3,5-dimethoxyphenyl)-2-oxo-1,2,3,4-tetrahydropyrido[4,3-d]pyrimidin-7-yl)methyl)acrylamide] |  | 30 to 200 |  |  | < 10 | 
C=CC(=O)NCc1cc2c(cn1)CN(c1c(F)c(OC)cc(OC)c1F)C(=O)N2c1ccncc1 [Example 26, N-((3-(2,6-difluoro-3,5-dimethoxyphenyl)-2-oxo-1-(pyridin-4-yl)-1,2,3,4-tetrahydropyrido[4,3-d]pyrimidin-7-yl)methyl)acrylamide] | 10 to 30 | > 200 | > 200 | > 200 |  | 
C=CC(=O)NCc1cc2c(cn1)CN(c1c(F)c(OC)cc(OC)c1F)C(=O)N2CCF [Example 27, N-((3-(2,6-difluoro-3,5-dimethoxyphenyl)-1-(2-fluoroethyl)-2-oxo-1,2,3,4-tetrahydropyrido[4,3-d]pyrimidin-7-yl)methyl)acrylamide] |  | > 200 | > 200 | > 200 | < 10 | 
C=CC(=O)NCc1cc2c(cn1)CN(c1c(F)c(OC)cc(OC)c1F)C(=O)N2C1CC(F)(F)C1 [Example 9, N-((3-(2,6-difluoro-3,5-dimethoxyphenyl)-1-(3,3-difluorocyclobutyl)-2-oxo-1,2,3,4-tetrahydropyrido[4,3-d]pyrimidin-7-yl)methyl)acrylamide] | 10 to 30 | > 200 | > 200 | > 200 |  | 
C=CC(=O)NCc1cc2c(cn1)CN(c1c(Cl)c(OC)cc(OC)c1Cl)C(=O)N2CC [Example 36, N-((3-(2,6-dichloro-3,5-dimethoxyphenyl)-1-ethyl-2-oxo-1,2,3,4-tetrahydropyrido[4,3-d]pyrimidin-7-yl)methyl)acrylamide] |  | > 200 | > 200 | > 200 | < 10 | 
C=CC(=O)NCc1cc2c(cn1)CN(c1c(F)c(OC)cc(OC)c1F)C(=O)N2CCOC [Example 11, N-((3-(2,6-difluoro-3,5-dimethoxyphenyl)-1-(2-methoxyethyl)-2-oxo-1,2,3,4-tetrahydropyrido[4,3-d]pyrimidin-7-yl)methyl)acrylamide] |  | > 200 | > 200 | > 200 | < 10 | 
C=CC(=O)NCc1cc2c(cn1)CN(c1c(F)c(OC)cc(OC)c1F)C(=O)N2C1CCOCC1 [Example 23, N-((3-(2,6-difluoro-3,5-dimethoxyphenyl)-2-oxo-1-(tetrahydro-2H-pyran-4-yl)-1,2,3,4-tetrahydropyrido[4,3-d]pyrimidin-7-yl)methyl)acrylamide] | 10 to 30 |  |  |  |  | 
C=CC(=O)NCc1cc2c(cn1)CN(c1c(F)c(OC)cc(OC)c1F)C(=O)N2CCC [Example 12, N-((3-(2,6-difluoro-3,5-dimethoxyphenyl)-2-oxo-1-propyl-1,2,3,4-tetrahydropyrido[4,3-d]pyrimidin-7-yl)methyl)acrylamide] |  | > 200 | > 200 | > 200 | < 10 | 
C=CC(=O)NCc1cc2c(cn1)CN(c1c(F)c(OC)cc(OC)c1F)C(=O)N2C1CCC1 [Example 25, N-((1-cyclobutyl-3-(2,6-difluoro-3,5-dimethoxyphenyl)-2-oxo-1,2,3,4-tetrahydropyrido[4,3-d]pyrimidin-7-yl)methyl)acrylamide] | 10 to 30 | > 200 | > 200 | > 200 |  | 
C=CC(=O)NCc1cc2c(cn1)CN(c1c(F)c(OC)cc(OC)c1F)C(=O)N2CC(C)C [Example 29, N-((3-(2,6-difluoro-3,5-dimethoxyphenyl)-1-isobutyl-2-oxo-1,2,3,4-tetrahydropyrido[4,3-d]pyrimidin-7-yl)methyl)acrylamide] |  | 30 to 200 |  | > 200 | < 10 | 
C=CC(=O)NCc1cc2c(cn1)CN(c1c(F)c(OC)cc(OC)c1F)C(=O)N2CC(F)F [Example 14, N-((3-(2,6-difluoro-3,5-dimethoxyphenyl)-1-(2,2-difluoroethyl)-2-oxo-1,2,3,4-tetrahydropyrido[4,3-d]pyrimidin-7-yl)methyl)acrylamide] |  | > 200 | > 200 | > 200 | < 10 | 
C=CC(=O)NCc1cc2c(cn1)CN(c1c(F)c(OC)cc(OC)c1F)C(=O)N2CC1CCN(C(=O)NC(C)C)CC1 [Example 34, 4-((7-(acrylamidomethyl)-3-(2,6-difluoro-3,5-dimethoxyphenyl)-2-oxo-3,4-dihydropyrido[4,3-d]pyrimidin-1(2H)-yl)methyl)-N-isopropylpiperidine-1-carboxamide] |  | > 200 | > 200 | > 200 | < 10 | 
C=CC(=O)NCc1cc2c(cn1)CN(c1c(F)c(OC)cc(OC)c1F)C(=O)N2CC1CCN(C(=O)OC)CC1 [Example 33, methyl 4-((7-(acrylamidomethyl)-3-(2,6-difluoro-3,5-dimethoxyphenyl)-2-oxo-3,4-dihydropyrido[4,3-d]pyrimidin-1(2H)-yl)methyl)piperidine-1-carboxylate] |  | > 200 | > 200 |  | < 10 | 
C=CC(=O)NCc1cc2c(cn1)CN(c1c(F)c(OC)cc(OC)c1F)C(=O)N2CC1CC1 [Example 13, N-((1-(cyclopropylmethyl)-3-(2,6-difluoro-3,5-dimethoxyphenyl)-2-oxo-1,2,3,4-tetrahydropyrido[4,3-d]pyrimidin-7-yl)methyl)acrylamide] |  | 30 to 200 |  |  | < 10 | 
C=CC(=O)NCc1cc2c(cn1)CN(c1c(F)c(OC)cc(OC)c1F)C(=O)N2Cc1cnn(C)c1 [Example 18, N-((3-(2,6-difluoro-3,5-dimethoxyphenyl)-1-((1-methyl-1H-pyrazol-4-yl)methyl)-2-oxo-1,2,3,4-tetrahydropyrido[4,3-d]pyrimidin-7-yl)methyl)acrylamide] |  | 30 to 200 |  |  | < 10 | 
C=CC(=O)NCc1cc2c(cn1)CN(c1c(F)c(OC)cc(OC)c1F)C(=O)N2Cc1cccc(F)c1 [Example 16, N-((3-(2,6-difluoro-3,5-dimethoxyphenyl)-1-(3-fluorobenzyl)-2-oxo-1,2,3,4-tetrahydropyrido[4,3-d]pyrimidin-7-yl)methyl)acrylamide] | 10 to 30 | 30 to 200 |  |  |  | 
